Data on 1 compound can be found in US20190117651A1, “COMPOSITION FOR STIMULATING SIRTUIN ACTIVITY” (Bitop AG, priority 2016, published 2019).

In this experiment the test system is sirtuin activity in the lung tissue. The experiment in a line: repeated application of a solution containing ectoine into the lungs of rats; sirtuin activity in the lung tissue. In kind it is in vivo. From the text:
The composition proposed by the invention can generally be adopted for the treatment and/or prophylaxis of aging symptoms and for influencing self-renewal processes, cell differentiation and cell proliferation. The composition is of particular importance in the treatment of aging symptoms of the lung, especially of the senile emphysema. This is characterized by the degeneration of the alveolar structures in the lungs, which leads to a reduction of the lung surface which is available for the exchange of gas. In such cases, the patient finds it hard to breathe properly. […] The aging of tissue is attributable to an altered gene activity during the self-renewal and cell differentiation processes in (lung) tissue, which is regulated by the accessibility of DNA by histones and is thus also dependent on sirtuins.

For the compound `CC1=NCC[C@@H](C(=O)O)N1` (stereo in doubt) [ectoine, 2-methyl-1,4,5,6-tetrahydropyrimidine-4-carboxylic acid], the “loss of sirtuin activity in the lung tissue” value is listed as “significant reduction of the loss of sirtuin activity”.
